What was measured:
[1] = tested on: Sprague Dawley rats; assay: Pilot study, single IV bolus injection, righting reflex and tail clamp response; settings: for time to return of righting reflex: methyl salicylate: the 2 surviving rats
Description: Solutions of 10% (v/v) L-carvone or methyl salicylate were prepared sterilely in 20% […]® (Fresenius Kabi, Lake Zurich, IL, USA). Lateral tail vein catheters were placed in twenty-one 69-day-old, male, Sprague Dawley rats weighing 291±17 (mean±SD) grams. Each rat received a single intravenous bolus injection of L-carvone solution (0.2 or 0.4 mL), methyl salicylate solution (0.1, 0.15, 0.2, or 0.4 mL), or a 1:1 mixture of the L-carvone and methyl salicylate solutions over 15 s. Because L-carvone density is 0.9673 g/cm^3 at 25° C., 0.2 mL and 0.4 mL of solution contained 19 mg and 39 mg of L-carvone, respectively (E. E. Royals & S. E. Horne, J. Am. Chem. Soc. 73, (1951): 5850).
Spontaneous motor activity and loss-of-righting reflex was assessed at 5- to 10-s intervals, and nociception response to an alligator clamp applied to the tail was tested if the righting reflex was absent. […] Animals were weighed 24 and 48 h after the study and then euthanized for gross pathology examination.

[2] = target: T1, Nav1.2 channels (human SCN2A) (Homo sapiens, UniProt Q99250); assay: Two-electrode voltage clamp of Nav1.2 channels expressed in Xenopus oocytes; type: cell-based; settings: for inhibition of Nav1.2 channels: at the mean plasma concentration during IV infusion anesthesia in rats; for Hill coefficient, Nav1.2 channel inhibition: dose-response model; for effect on Nav1.2 channel currents: dose-response, oocytes
T1 construct: expressed in transfected cells; host or cells: Xenopus laevis oocytes (RNA injection)
Text: Ovaries removed from sexually mature Xenopus laevis frogs were bluntly dissected to remove surrounding connective tissue and then digested with 0.2% type I collagenase in an oocyte Ringer's solution. Once free from thecal cells and connective tissue, individual oocytes were rinsed, sorted, and stored in a modified Barth's solution (R. Brosnan et al., Anesth. Analg. 103, (2006): 86; L. Yang, P. S. Milutinovic, R. J. Brosnan, E. I. Eger 2nd, & J. M. Sonner, Anesth. Analg. 105, (2007): 393; R. J. Brosnan, F. B. Fukushima, & T. L. Pham, Anaesth. Analg. 44, (2017): 577; A. Cenani, R. J. Brosnan, & H. K. Knych, Pharmacology 103, (2019): 10).
Heteromeric GABAA receptors were expressed in oocytes by blind intranuclear injection of 1 ng DNA encoding the human al (GABRA1) and rat B2 (GABRB2) subunits in a 1:1 ratio. NMDA receptors were expressed by intracytoplasmic injection of 5 ng RNA encoding rat NR1 (GRIN1) and rat NR2a (GRIN2A) subunits in a 1:1 ratio. Nax 1.2 channels were expressed by injection of 5 ng RNA encoding the human SCN2A gene.
Studies of the Nav1.2 channels were carried out Using the same equipment as above, oocytes were perfused with FR and clamped at −80 mV transmembrane potential. Every 2 min, a 6-s step potential to 0 mV was applied to open the channel; this was repeated until baseline responses stabilized. Next, FR containing the test drug was perfused for 2 min followed by another 6-s step voltage change to 0 mV. Finally, FR was perfused for 5 min to wash out the drug, and another 6-s step clamp to 0 mV was applied to confirm that post-drug currents had returned to within 10% of pre-drug values.
The change in whole cell peak current before and during agonist exposure (for GABAA and NMDA receptors) or before and during the voltage step clamp (for Nav1.2 channels) was measured in the tracings immediately before and during drug exposure. Percent change in current was calculated as follows:
[formula] • where IB is the baseline pre-drug current peak and ID is the drug current peak. For each drug and ion channel, data were fit to a Hill equation using nonlinear regression with sequential quadratic programming and bootstrap estimates of parameter standard errors (SPSS, v. 27; IBM, Armonk, NY, USA). In the model, maximum drug inhibition (Imax) was constrained to not be less than −100%. Initial parameter estimates were seeded with values based on visual inspection of respective dose-response curves in order to facilitate model convergence.

[3] = 0.2 mL IV bolus of 10% emulsion

T1 sequence (Q99250 whole entry, the tested form may be a part): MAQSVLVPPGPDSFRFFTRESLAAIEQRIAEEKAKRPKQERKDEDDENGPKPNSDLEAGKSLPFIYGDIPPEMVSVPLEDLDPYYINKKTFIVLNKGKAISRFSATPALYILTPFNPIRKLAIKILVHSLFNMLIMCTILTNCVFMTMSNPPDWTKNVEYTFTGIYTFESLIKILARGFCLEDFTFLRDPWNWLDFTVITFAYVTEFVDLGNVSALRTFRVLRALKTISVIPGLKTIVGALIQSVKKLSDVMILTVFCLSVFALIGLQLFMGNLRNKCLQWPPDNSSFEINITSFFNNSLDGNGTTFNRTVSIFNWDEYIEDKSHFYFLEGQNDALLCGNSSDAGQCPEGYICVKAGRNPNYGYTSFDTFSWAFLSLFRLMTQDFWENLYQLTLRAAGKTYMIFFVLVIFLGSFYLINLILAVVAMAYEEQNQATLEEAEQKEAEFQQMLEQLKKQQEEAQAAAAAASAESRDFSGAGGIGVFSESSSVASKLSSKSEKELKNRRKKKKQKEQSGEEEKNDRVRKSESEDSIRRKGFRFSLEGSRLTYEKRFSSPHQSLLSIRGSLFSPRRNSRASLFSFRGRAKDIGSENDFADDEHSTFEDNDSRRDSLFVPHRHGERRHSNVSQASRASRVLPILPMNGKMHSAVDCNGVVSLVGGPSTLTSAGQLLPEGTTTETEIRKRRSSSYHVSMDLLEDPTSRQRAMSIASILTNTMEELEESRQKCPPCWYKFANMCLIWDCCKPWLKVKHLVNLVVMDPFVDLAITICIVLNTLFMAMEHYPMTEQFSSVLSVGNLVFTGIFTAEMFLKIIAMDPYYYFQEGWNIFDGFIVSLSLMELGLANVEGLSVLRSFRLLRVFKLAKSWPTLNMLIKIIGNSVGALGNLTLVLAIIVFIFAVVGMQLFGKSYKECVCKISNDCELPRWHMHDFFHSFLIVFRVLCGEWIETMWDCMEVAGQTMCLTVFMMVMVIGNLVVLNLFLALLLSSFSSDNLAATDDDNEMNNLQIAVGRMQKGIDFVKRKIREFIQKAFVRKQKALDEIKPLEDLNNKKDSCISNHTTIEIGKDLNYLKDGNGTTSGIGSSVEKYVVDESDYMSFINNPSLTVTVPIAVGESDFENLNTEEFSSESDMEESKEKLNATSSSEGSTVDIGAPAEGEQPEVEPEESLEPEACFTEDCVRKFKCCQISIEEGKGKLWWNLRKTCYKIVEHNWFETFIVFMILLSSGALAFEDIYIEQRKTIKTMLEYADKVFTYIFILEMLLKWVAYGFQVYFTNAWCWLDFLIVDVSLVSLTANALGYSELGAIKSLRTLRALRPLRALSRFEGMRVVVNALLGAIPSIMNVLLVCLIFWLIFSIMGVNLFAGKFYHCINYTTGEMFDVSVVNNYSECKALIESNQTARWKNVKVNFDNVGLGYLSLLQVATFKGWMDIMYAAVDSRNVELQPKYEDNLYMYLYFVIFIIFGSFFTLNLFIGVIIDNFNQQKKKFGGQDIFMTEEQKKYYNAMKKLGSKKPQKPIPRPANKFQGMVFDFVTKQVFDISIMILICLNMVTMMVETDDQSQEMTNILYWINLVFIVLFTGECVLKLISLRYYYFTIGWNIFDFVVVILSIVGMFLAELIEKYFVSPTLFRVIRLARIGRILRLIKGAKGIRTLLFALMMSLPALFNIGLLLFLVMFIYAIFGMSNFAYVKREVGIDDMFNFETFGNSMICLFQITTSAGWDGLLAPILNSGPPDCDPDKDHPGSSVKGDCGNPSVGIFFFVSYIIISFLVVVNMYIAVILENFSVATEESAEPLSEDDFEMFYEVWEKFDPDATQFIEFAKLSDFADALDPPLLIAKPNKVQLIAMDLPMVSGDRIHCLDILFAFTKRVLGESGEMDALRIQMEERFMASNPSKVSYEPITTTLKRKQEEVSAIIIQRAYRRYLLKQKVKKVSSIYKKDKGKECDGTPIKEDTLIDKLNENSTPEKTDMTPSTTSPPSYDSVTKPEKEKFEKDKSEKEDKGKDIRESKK

COC(=O)c1ccccc1O [methyl salicylate]
time to loss-of-righting reflex ([1]; 0.1 mL IV bolus of 10% emulsion in 20% INTRALIPID, single rat): 33 s
general anesthesia (immobility in response to a tail clamp) ([1]; 0.1 mL IV bolus, single rat): never resulted in general anesthesia
time to return-of-righting reflex ([1]; 0.1 mL IV bolus, single rat): 60 s
time to anesthesia ([1]; 0.15 mL IV bolus, N=4 rats): 39 ± 2 s
time to loss-of-righting ([1]; 0.15 mL IV bolus, N=4 rats): 35 ± 5 s
time to normal ambulation without ataxia ([1]; 0.15 mL IV bolus, N=4 rats): 76 ± 10 s
time to return from anesthesia (tail clamp response) after drug injection ([1]; 0.15 mL IV bolus, N=4 rats): 64 ± 8 s
time to return of righting after drug injection ([1]; 0.15 mL IV bolus, N=4 rats): 53 ± 3 s
time to walking and active / ambulating normally ([1]; 0.2 mL IV bolus): 110 s
time to loss of tail clamp response (general anesthesia) [1, 3]: 37 ± 13 s
time to loss-of-righting reflex [1, 3]: 35 ± 10 s
time to return of righting reflex ([1]; 0.2 mL IV bolus): 58 s
time to regain tail clamp response ([1]; 0.2 mL IV bolus, the 2 surviving rats): 48 s
time to unconsciousness ([1]; 0.4 mL IV bolus): 20 ± 5 s
body weight for the next two days, relative to baseline values ([1]; rat, in vivo): 97-98%
gross pathology / necropsy findings ([1]; rat, in vivo): no gross abnormalities
inhibition of Nav1.2 channels [2]: 78%
greater potency for Nav1.2 channels than for NMDA receptors ([2]; comparison of IC50, FIG. 4): 50%
Hill coefficient, Nav1.2 channel inhibition [2]: greater than 1
effect on Nav1.2 channel currents [2]: dose-dependently inhibited

L-carvone
body weight over the next 2 days, deviation from baseline ([1]; 0.2 mL IV bolus): 1.9±1.4%
time to walking and active / ambulating normally ([1]; 0.2 mL IV bolus): 60 ± 13 s
time to loss of tail clamp response (general anesthesia) [1, 3]: 54 ± 11 s
time to loss-of-righting reflex [1, 3]: 40 ± 6 s
behavioural sign before loss-of-righting reflex ([1]; 0.2 mL IV bolus, N=4 rats): transient excitement
duration of transiently decreased respiratory rate ([1]; 0.2 mL IV bolus, N=4 rats): approximately 10 s
duration of whole-body muscle hypertonia ([1]; 0.2 mL IV bolus, half of the rats): 15 s
time to return of righting reflex ([1]; 0.2 mL IV bolus): 58 ± 14 s
time to cardiopulmonary arrest ([1]; 0.4 mL IV bolus): 35 ± 18 s
time to unconsciousness ([1]; 0.4 mL IV bolus): 20 ± 4 s
gross pathology / necropsy findings ([1]; recovered animals (sublethal doses), 48 h after drug administration): no gross pathology findings
Nav1.2 channel current at highest concentration ([2]; 10 mM drug): near or complete loss of channel currents
inhibition of Nav1.2 channels [2]: 90%
Hill coefficient, Nav1.2 channel inhibition [2]: ~1
effect on Nav1.2 channel currents [2]: dose-dependent inhibition

Source: patent US20240226034A1, “Use of Terpenoids and Salicylates as Anesthetics and Analgesics” (THE REGENTS OF THE UNIVERSITY OF CALIFORNIA, priority 2021, published 2024)
